Assay results: PMC10447463, “Data-mining unveils structure–property–activity correlation of viral infectivity enhancing self-assembling peptides” (Nature Communications, 2023)
Like-named read-outs stand apart in the source and are kept apart here.

Assay type: physicochemical
Conditions: for ThT Cat. / ThT-Fluorescence (categorical): ThT-active if fluorescence at least twice the control; for Rel. ThT: n-fold ThT fluorescence vs control (PBS, 10% DMSO), 4 µL 1 mg/mL fibrils + 20 µL 50 µM ThT, 15 min RT, ex 440 / em 488 nm, triplicate
In short: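 Fibrils (1 mg/mL solution) were mixed with 50 µM ThT in PBS for 15 min at RT, and fluorescence was read at λex 440/λem 488 nm against a PBS blank, as a triplicate mean ± SD. Zeta potential came from electrophoretic mobility (Smoluchowski) after 1 d aggregation at 1 mg/mL in PBS pH 7.4, diluted into 1 mM KCl.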

[1] = ThT fluorescence category, 1 if Rel. ThT >2

Substance | Tht category (> 2 to blank = +) (Fig S10 panel D) | Tht category (> 2 to blank = +) (FigS12 panel A) | ThT Cat, (FigS12 panel B) | ThT Cat, (ThT category, 1 if Rel. ThT >2) | ThT Cat. [1] | ThT Cat. / ThT-Fluorescence (categorical) | ThT Cat. (ThT category, 1 if Rel. ThT >2) | Rel. ThT | Tht rel to blank (42.1851851851852) (ThT fluorescence relative to blank, blank = 42.1851851851852) | Tht category (> 1.5 to blank = +) (category 1/0)
KIKIQII | 0 (ThT-inactive (N-Fold <2)) | 0 (ThT-inactive (N-Fold <2)) | 0 (ThT-inactive (N-Fold <2)) | 0 (ThT-inactive (N-Fold <2)) | 0 (ThT-inactive (N-Fold <2)) | 0 (ThT-inactive (N-Fold <2)) |  |  |  | 
KIKIQINMWQRGD | 0 (ThT-inactive (N-Fold <2)) | 0 (ThT-inactive (N-Fold <2)) | 0 (ThT-inactive (N-Fold <2)) | 0 (ThT-inactive (N-Fold <2)) |  | 0 (ThT-inactive (N-Fold <2)) | 0 (ThT-inactive (N-Fold <2)) | 1.5 |  | 
KLKLQLL | 0 (ThT-inactive (N-Fold <2)) | 0 (ThT-inactive (N-Fold <2)) | 0 (ThT-inactive (N-Fold <2)) | 0 (ThT-inactive (N-Fold <2)) | 0 (ThT-inactive (N-Fold <2)) | 0 (ThT-inactive (N-Fold <2)) |  |  |  | 
CKIKQIIRGD |  |  | 0 (ThT-inactive (N-Fold <2)) | 0 (ThT-inactive (N-Fold <2)) | 0 (ThT-inactive (N-Fold <2)) | 0 (ThT-inactive (N-Fold <2)) |  |  |  | 
CKFKQFFNM | 1 (ThT. Cat is 1, if Rel. ThT >2) |  |  | 1 (ThT. Cat is 1, if Rel. ThT >2) |  | 1 (ThT. Cat is 1, if Rel. ThT >2) | 1 (ThT. Cat is 1, if Rel. ThT >2) |  |  | 
HHHHKAKAKAKAYYYY | 0 (ThT-inactive (N-Fold <2)) | 0 (ThT-inactive (N-Fold <2)) | 0 (ThT-inactive (N-Fold <2)) | 0 (ThT-inactive (N-Fold <2)) | 0 (ThT-inactive (N-Fold <2)) | 0 (ThT-inactive (N-Fold <2)) |  |  |  | 
KVKVQVVV | 0 (ThT-inactive (N-Fold <2)) | 0 (ThT-inactive (N-Fold <2)) | 0 (ThT-inactive (N-Fold <2)) | 0 (ThT-inactive (N-Fold <2)) | 0 (ThT-inactive (N-Fold <2)) | 0 (ThT-inactive (N-Fold <2)) |  |  |  | 
KIKIKIKIWWWW | 1 (ThT. Cat is 1, if Rel. ThT >2) |  |  | 1 (ThT. Cat is 1, if Rel. ThT >2) | 1 (ThT. Cat is 1, if Rel. ThT >2) | 1 (ThT. Cat is 1, if Rel. ThT >2) |  |  |  | 
CQFQFQF | 1 (ThT. Cat is 1, if Rel. ThT >2) |  |  | 1 (ThT. Cat is 1, if Rel. ThT >2) | 1 (ThT. Cat is 1, if Rel. ThT >2) | 1 (ThT. Cat is 1, if Rel. ThT >2) |  |  |  | 
HHHHKIKIKIKIWWWW [TM4] |  |  |  |  |  |  |  |  | 4.025 | 1 (ThT. Cat is 1, if Rel. ThT >2)
KVKVQVV | 0 (ThT-inactive (N-Fold <2)) | 0 (ThT-inactive (N-Fold <2)) | 0 (ThT-inactive (N-Fold <2)) | 0 (ThT-inactive (N-Fold <2)) | 0 (ThT-inactive (N-Fold <2)) | 0 (ThT-inactive (N-Fold <2)) |  |  |  | 
KIKIQINMWWQ | 0 (ThT-inactive (N-Fold <2)) |  |  | 0 (ThT-inactive (N-Fold <2)) |  | 0 (ThT-inactive (N-Fold <2)) | 0 (ThT-inactive (N-Fold <2)) |  |  | 
KFKFQFW | 1 (ThT. Cat is 1, if Rel. ThT >2) |  |  | 1 (ThT. Cat is 1, if Rel. ThT >2) |  | 1 (ThT. Cat is 1, if Rel. ThT >2) | 1 (ThT. Cat is 1, if Rel. ThT >2) |  |  | 
MKIKIQINM | 0 (ThT-inactive (N-Fold <2)) |  |  | 0 (ThT-inactive (N-Fold <2)) | 0 (ThT-inactive (N-Fold <2)) | 0 (ThT-inactive (N-Fold <2)) |  |  |  | 
KIKIQIRGD | 1 (ThT. Cat is 1, if Rel. ThT >2) | 1 (ThT. Cat is 1, if Rel. ThT >2) | 1 (ThT. Cat is 1, if Rel. ThT >2) | 1 (ThT. Cat is 1, if Rel. ThT >2) | 1 (ThT. Cat is 1, if Rel. ThT >2) | 1 (ThT. Cat is 1, if Rel. ThT >2) |  |  |  | 
KIKIKIKI | 1 (ThT. Cat is 1, if Rel. ThT >2) | 1 (ThT. Cat is 1, if Rel. ThT >2) | 1 (ThT. Cat is 1, if Rel. ThT >2) | 1 (ThT. Cat is 1, if Rel. ThT >2) | 1 (ThT. Cat is 1, if Rel. ThT >2) | 1 (ThT. Cat is 1, if Rel. ThT >2) |  |  |  | 
KIKIQIW | 1 (ThT. Cat is 1, if Rel. ThT >2) |  |  | 1 (ThT. Cat is 1, if Rel. ThT >2) |  | 1 (ThT. Cat is 1, if Rel. ThT >2) | 1 (ThT. Cat is 1, if Rel. ThT >2) |  |  | 

Substance | Tht category (> 2 to blank = +) (Fig S10 panel D) | Tht category (> 2 to blank = +) (FigS12 panel A) | ThT Cat, (FigS12 panel B) | ThT Cat, (ThT category, 1 if Rel. ThT >2) | ThT Cat. [1] | ThT Cat. / ThT-Fluorescence (categorical) | ThT Cat. (ThT category, 1 if Rel. ThT >2) | Rel. ThT | Tht rel to blank (42.1851851851852) (ThT fluorescence relative to blank, blank = 42.1851851851852) | Tht category (> 1.5 to blank = +) (category 1/0)
RGDCKIKIQINM | 0 (ThT-inactive (N-Fold <2)) |  |  | 0 (ThT-inactive (N-Fold <2)) | 0 (ThT-inactive (N-Fold <2)) | 0 (ThT-inactive (N-Fold <2)) |  |  |  | 
KFKQFFINMWQ | 0 (ThT-inactive (N-Fold <2)) |  |  | 0 (ThT-inactive (N-Fold <2)) |  | 0 (ThT-inactive (N-Fold <2)) | 0 (ThT-inactive (N-Fold <2)) |  |  | 
KFKFQFN | 0 (ThT-inactive (N-Fold <2)) | 0 (ThT-inactive (N-Fold <2)) | 0 (ThT-inactive (N-Fold <2)) | 0 (ThT-inactive (N-Fold <2)) |  | 0 (ThT-inactive (N-Fold <2)) | 0 (ThT-inactive (N-Fold <2)) | 1.1 |  | 
KIEIQINM | 0 (ThT-inactive (N-Fold <2)) | 0 (ThT-inactive (N-Fold <2)) | 0 (ThT-inactive (N-Fold <2)) | 0 (ThT-inactive (N-Fold <2)) | 0 (ThT-inactive (N-Fold <2)) | 0 (ThT-inactive (N-Fold <2)) |  |  |  | 
QCKFKQFF | 1 (ThT. Cat is 1, if Rel. ThT >2) | 1 (ThT. Cat is 1, if Rel. ThT >2) | 1 (ThT. Cat is 1, if Rel. ThT >2) | 1 (ThT. Cat is 1, if Rel. ThT >2) |  | 1 (ThT. Cat is 1, if Rel. ThT >2) | 1 (ThT. Cat is 1, if Rel. ThT >2) |  |  | 
KLKLKLQL | 0 (ThT-inactive (N-Fold <2)) | 0 (ThT-inactive (N-Fold <2)) | 0 (ThT-inactive (N-Fold <2)) | 0 (ThT-inactive (N-Fold <2)) | 0 (ThT-inactive (N-Fold <2)) | 0 (ThT-inactive (N-Fold <2)) |  |  |  | 
KFKFQFF | 1 (ThT. Cat is 1, if Rel. ThT >2) |  |  | 1 (ThT. Cat is 1, if Rel. ThT >2) | 1 (ThT. Cat is 1, if Rel. ThT >2) | 1 (ThT. Cat is 1, if Rel. ThT >2) |  |  |  | 
KAKAQANM | 0 (ThT-inactive (N-Fold <2)) | 0 (ThT-inactive (N-Fold <2)) | 0 (ThT-inactive (N-Fold <2)) | 0 (ThT-inactive (N-Fold <2)) | 0 (ThT-inactive (N-Fold <2)) | 0 (ThT-inactive (N-Fold <2)) |  | 1.1 |  | 
KIKIQIMWNQ | 0 (ThT-inactive (N-Fold <2)) |  |  | 0 (ThT-inactive (N-Fold <2)) |  | 0 (ThT-inactive (N-Fold <2)) | 0 (ThT-inactive (N-Fold <2)) |  |  | 
KIKIQINMWWWQ | 0 (ThT-inactive (N-Fold <2)) |  |  | 0 (ThT-inactive (N-Fold <2)) |  | 0 (ThT-inactive (N-Fold <2)) | 0 (ThT-inactive (N-Fold <2)) |  |  | 
HHHHKIKIKIKIYYYY | 1 (ThT. Cat is 1, if Rel. ThT >2) |  |  | 1 (ThT. Cat is 1, if Rel. ThT >2) | 1 (ThT. Cat is 1, if Rel. ThT >2) | 1 (ThT. Cat is 1, if Rel. ThT >2) |  |  |  | 
HHHHKAKAKAKAWWWW | 1 (ThT. Cat is 1, if Rel. ThT >2) | 1 (ThT. Cat is 1, if Rel. ThT >2) | 1 (ThT. Cat is 1, if Rel. ThT >2) | 1 (ThT. Cat is 1, if Rel. ThT >2) |  | 1 (ThT. Cat is 1, if Rel. ThT >2) | 1 (ThT. Cat is 1, if Rel. ThT >2) |  |  | 
KAKAKAQA | 0 (ThT-inactive (N-Fold <2)) | 0 (ThT-inactive (N-Fold <2)) | 0 (ThT-inactive (N-Fold <2)) | 0 (ThT-inactive (N-Fold <2)) | 0 (ThT-inactive (N-Fold <2)) | 0 (ThT-inactive (N-Fold <2)) |  |  |  | 
KIKIKIQINMWQ | 0 (ThT-inactive (N-Fold <2)) |  |  | 0 (ThT-inactive (N-Fold <2)) |  | 0 (ThT-inactive (N-Fold <2)) | 0 (ThT-inactive (N-Fold <2)) |  |  | 
MKIKIQINMWQ | 1 (ThT. Cat is 1, if Rel. ThT >2) |  |  | 1 (ThT. Cat is 1, if Rel. ThT >2) | 1 (ThT. Cat is 1, if Rel. ThT >2) | 1 (ThT. Cat is 1, if Rel. ThT >2) |  |  |  | 
IKVAVKIKIQINM | 0 (ThT-inactive (N-Fold <2)) |  |  | 0 (ThT-inactive (N-Fold <2)) |  | 0 (ThT-inactive (N-Fold <2)) | 0 (ThT-inactive (N-Fold <2)) |  |  | 
